Data on 14 molecules can be found in US20260224561A1, “INHIBITORS OF CYCLIC ADP RIBOSE HYDROLASE AND METHODS OF USE THEREOF” (Flagship Pioneering Innovations VI, LLC, priority 2022, published 2026).

The target in this test is T1, Human recombinant CD38 (Homo sapiens, UniProt P28907).
T1 construct: purchased BPS Bioscience
T1 sequence (P28907 1-300): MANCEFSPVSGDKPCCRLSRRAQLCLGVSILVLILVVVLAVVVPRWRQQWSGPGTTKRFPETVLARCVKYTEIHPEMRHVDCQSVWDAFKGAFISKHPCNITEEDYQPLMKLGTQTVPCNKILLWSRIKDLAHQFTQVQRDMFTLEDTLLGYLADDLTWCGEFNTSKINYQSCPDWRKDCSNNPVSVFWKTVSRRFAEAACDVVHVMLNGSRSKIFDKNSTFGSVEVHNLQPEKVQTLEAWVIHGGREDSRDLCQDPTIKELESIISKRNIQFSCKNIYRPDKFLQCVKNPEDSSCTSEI
The test can be described thus: CD38 hydrolase inhibition assay. The following applies: glycohydrolase activity, 0.2 ng/μL CD38, 100 μM ε-NAD substrate, fluorescence excitation 300 nm / emission 410 nm. The format is biochemical. As to the method:
Example 22: CD38 Hydrolase Inhibition Assay
The CD38 hydrolase inhibition assay measures the glycohydrolase activity of CD38, using an NAD analog as substrate and measuring formation of a fluorescent ADP ribose analog. A 4× buffer was prepared with 1M sucrose and 160 mM Tris-HCl at pH 7.4, for a final assay concentration of 250 mM sucrose and 40 mM Tris-HCl. The 4× solution was kept at 4° C. and warmed to room temperature before use. Tween20 was added to 1× buffer for a final concentration of 0.05%. Human recombinant CD38 (BPS Bioscience) was diluted to 0.4 ng/μL in 1× buffer and 12.5 μL added to each plate well. Inhibitors were added and DMSO content was normalized to the highest concentration on the plate, with an upper limit of 0.5%. Finally, ε-NAD was diluted to 200 μM in 1× buffer and 12.5 μL added to each plate well, for final well concentrations of 0.2 ng/μL CD38 and 100 μM ε-NAD. Plates were covered and incubated at room temperature for […], and then read on a plate reader using excitation 300 nm and emission 410 nm. […] IC50s for test compounds were determined either using GraphPad Prism software v9.3, or CDD Vault.
As to `COCCOc1cc(C(=O)Nc2ccc3[nH]cnc3c2)cc(-n2ccnc2)c1` [Compound 127, N-(1H-benzo[d]imidazol-6-yl)-3-(1H-imidazol-1-yl)-5-(2-methoxyethoxy)benzamide], the IC50 – broadly, the concentration needed to halve the response being measured – is < 100 nM. With `CN(C)CCOc1cc(C(=O)Nc2ccnc(C(F)(F)F)c2)cc(-n2ccnc2)c1` [Compound 107, 3-[2-(dimethylamino)ethoxy]-5-(imidazol-1-yl)-N-[2-(trifluoromethyl)pyridin-4-yl]benzamide] the figure was < 100 nM; with `COCCOc1cc(-n2ccnc2)cc(C(=O)Nc2ccnc(C(F)(F)F)c2)c1F` [Compound 117, 2-fluoro-5-(imidazol-1-yl)-3-(2-methoxyethoxy)-N-[2-(trifluoromethyl)pyridin-4-yl]benzamide], 100 to 1000 nM.

Turning to `COCCOc1cc(C(=O)Nc2ccc3nccnc3c2)cc(-n2ccnc2)c1` [Compound 128, 3-(imidazol-1-yl)-5-(2-methoxyethoxy)-N-(quinoxalin-6-yl) benzamide], the IC50 was < 100 nM.

In the case of `COCCOc1cc(C(=O)Nc2ccc3[nH]ncc3c2)cc(-n2ccnc2)c1` [Compound 126, 3-(imidazol-1-yl)-N-(1H-indazol-5-yl)-5-(2-methoxyethoxy) benzamide], the IC50 is < 100 nM. The result for `COCCOc1cc(C(=O)Nc2ccnc(C(F)(F)F)c2)cc(-n2cncc2CO)c1` [Compound 118] reads 100 to 1000 nM; that for `COCCOc1cc(C(=O)Nc2cncc(Cl)c2)cc(-n2ccnc2)c1` [Compound 106, N-(5-chloropyridin-3-yl)-3-(imidazol-1-yl)-5-(2-methoxyethoxy) benzamide], < 100 nM; that for `COc1cc(C(=O)Nc2ccnc(C(F)(F)F)c2)cc(-n2ccnc2)c1` [Compound 115, 3-(imidazol-1-yl)-5-methoxy-N-[2-(trifluoromethyl)pyridin-4-yl]benzamide], < 100 nM.

Consider `COCCOc1cc(-n2ccnc2)cc(C(=O)Nc2ccnc(C(F)(F)F)c2)c1Cl` [Compound 113], for which the IC50 was > 1000 nM. The result for `COCCOc1cc(C(=O)Nc2ccc3cn[nH]c3c2)cc(-n2ccnc2)c1` [Compound 109, 3-(imidazol-1-yl)-N-(1H-indazol-6-yl)-5-(2-methoxyethoxy) benzamide] reads < 100 nM; that for `COCCOc1cc(C(=O)Nc2ccnc(C(F)(F)F)c2)cc(-c2cccnc2)c1` [Compound 120, 3-(2-methoxyethoxy)-5-(pyridin-3-yl)-N-[2-(trifluoromethyl)pyridin-4-yl]benzamide], > 1000 nM; that for `COCCOc1cc(C(=O)Nc2ccc(C(F)(F)F)nc2)cc(-n2ccnc2)c1` [Compound 112, 3-(imidazol-1-yl)-5-(2-methoxyethoxy)-N-[6-(trifluoromethyl)pyridin-3-yl]benzamide], < 100 nM. With `COCCOc1cc(C(=O)Nc2ccnc(C(F)(F)F)c2)cc(-c2cncs2)c1` [Compound 116, 3-(2-methoxyethoxy)-5-(1,3-thiazol-5-yl)-N-[2-(trifluoromethyl)pyridin-4-yl]benzamide] the figure was < 100 nM; with `COCCOc1cc(C(=O)Nc2ccc(F)c(Cl)c2)cc(-n2ccnc2)c1` [Compound 111, N-(3-chloro-4-fluorophenyl)-3-(imidazol-1-yl)-5-(2-methoxyethoxy)benzamide], < 100 nM.
